Experimental data taken from patent publication US5110976A, “Insecticidal composition comprising more than one active ingredient” (priority 1985, dated 1992).

Legend:
T. confusum = experiment: Contact method, synergism between stereoisomers (Table 2); type: in vivo; conditions: Tribolium confusum, 24 h
Procedure: The stereoisomers are dissolved in a 1:2 mixture of mineral oil and acetone and filter paper discs (Whatman No. 1., diameter 9 cm) are impregnated with the corresponding dosage of the solution of the active ingredient. The acetone is allowed to evaporate and the insects are examined on filter paper discs placed into Petri-dishes. Three parallels are used for each dose and 15 animals are placed in each Petri-dish. Mortality rate is determined after 24 hours. The corrected mortality % data are calculated by means of the Abbot formula.
The test is carried out on T. confusum and the following results are obtained by the contact method for various active ingredient doses.
The test is carried out according to the method described in Example 20.

Musca domestica = experiment: Topical LD50 (Table 3); type: in vivo, house fly (Musca domestica), 3-5 days' old females
Procedure: In Table 3 the LD50 values of the Ig and Ii isomers and those of the Ib isomer-pair are disclosed. The data are topically measured.
The active ingredients are dissolved in 2-ethoxyethanol (cellosolve) and 0.3 μl droplets of the solutions are applied onto the dorsal cuticulum of 3-5 days' old female house flies. 10 animals are used and 2 parallels are carried out for each dose. The tests are carried out for 5 dose levels between activity limits of 0% and 100%. After treatment the flies are placed into glass vials. Mortality is determined after 24 hours. Data are transformed to log10 dosage and probit mortality. LD50 and confidence interval values are calculated by linear regression analysis of the log-probit data. The expected values required for the calculation of synergism are obtained by means of harmonic average. The synergistic factor is the quotient of the expected and measured values.

Hyphantria cunea = experiment: Topical test on fall webworm (Table 8); type: in vivo, L7-L8 larvae; conditions: 24 h
Procedure: The active ingredients are dissolved in 2-ethoxyethanol and the solutions are applied in the form of 0.2 μl droplets onto the back of fall webworm (Hyphantria cunea) of L7 -L8 larvae stage. The treated worms are placed on strawberry leaves in Petri-dishes. The test is carried out by using 5 doses; 2 parallels and 10 insects for each dose.

L. decemlineata = experiment: 5 EC formulation sprayed on glass plates (Table 9); type: in vivo, Colorado beetle (L. decemlineata), imagos; conditions: 48 hours
Procedure: From a 5 EC formulation according to Example 17 50-, 100-, 200-, 400-, 800- and 1600-fold diluted emulsions are prepared by diluting with water. 0.5 ml of the emulsions are sprayed onto glass plates whereupon after drying 10 Colorado beetles (L. decemlineata) imagos are placed on each glass plate and the insects are covered. The tests are carried out with 6 doses by carrying out 3 parallels for each dose. The killed insects are counted after 48 hours and the percental mortality rate is calculated.

bees = experiment: Toxicity on bees; conditions: in vivo

CC1(C)[C@H](C=C(Cl)Cl)[C@H]1C(=O)O[C@H](C#N)c1cccc(Oc2ccccc2)c1 (relative stereo) [Ib] was tested, and the mortality at 110 µg/disc (T. confusum; 0.11 mg/disc) was 90%, the mortality at 330 µg/disc (T. confusum; 0.33 mg/disc) was 100% and the mortality at 1000 µg/disc (T. confusum; 1.00 mg/disc) was 100%. For the same compound, the mortality at 3000 µg/disc (T. confusum; 3.00 mg/disc) was 100%, the LD50 expected (Musca domestica; harmonic average of the single isomers) was 24.5 ng/insect and the synerg. factor (Musca domestica; quotient of expected and measured LD50) was 1.92. The LD50 measured (Musca domestica; topical, dorsal cuticulum, 24 hours) was 12.8 ng/insect, the mortality at 0.023 µg/larva (Hyphantria cunea; 0.023 μg/larvae) was 10% and the mortality at 0.047 µg/larva (Hyphantria cunea; 0.047 μg/larvae) was 15%. For the same compound, the mortality at 0.094 µg/larva (Hyphantria cunea; 0.094 μg/larvae) was 30%, the mortality at 0.188 µg/larva (Hyphantria cunea; 0.188 μg/larvae) was 70% and the mortality at 0.375 µg/larva (Hyphantria cunea; 0.375 μg/larvae) was 80%. For the same compound, the Mortality % (L. decemlineata; dilution 50x) was 100%, the Mortality % (L. decemlineata; dilution 100x) was 87% and the Mortality % (L. decemlineata; dilution 200x) was 57%. For the same compound, the Mortality % (L. decemlineata; dilution 400x) was 37%, the Mortality % (L. decemlineata; dilution 800x) was 13% and the Mortality % (L. decemlineata; dilution 1600x) was 0%. For the same compound, the toxicity on bees (bees) was “very low toxicity on bees”.
